The results in this text go back to patent US20250235456A1, “METHODS OF USE FOR AZA-QUINAZOLINE COMPOUNDS” (Iambic Therapeutics, Inc., priority 2024, published 2025).

A value given as a limit tells only on which side of the number the result lay.

Format in all cases: biochemical
Test [1] deals with CDK2/Cyclin E1 full length (Homo sapiens (Human), UniProt P24941). Kind of test: CDK2/Cyclin E1 Full length ADP-Glo Kinase Assay. The settings on record: read-out: CDK2/CyclinE1 IC50. Here is the method:
CDK2/Cyclin E1 Full length ADP-Glo Kinase Assay
The purpose of CDK2/Cyclin El assay is to evaluate the inhibition (% inhibition and IC50 values) of small molecule inhibitors by using a Luminescent based ADP-Glo assay. CDK2/Cyclin El full length catalyzes the production of ADP from ATP. ADP-Glo assay monitors ADP producing biochemical reactions. ADP-Glo is performed in 2 steps upon completion of kinase reaction: a combined termination of kinase reaction and depletion of remaining ATP in the first step, and conversion of generated ADP to ATP and the newly produced ATP to light output using luciferase/luciferin reaction in the second step. The luminescent signal generated is proportional to the ADP concentration produced and is correlated with the kinase activity. CDK2/Cyclin E1 was purchased from Eurofins (Cat 14-475M). […] The assay was initiated with the addition of ATP-containing substrate solution, following a 30-minute pre-incubation of enzyme and inhibitor at room temperature in the reaction mixture. The reaction was stopped after 90 minutes at room temperature by the addition of 10 μL of ADP-GLO Reagent. After a 90 minute incubation, 20 uL of Kinase Detection Reagent was added. Samples were incubated for 40 minutes, after which plate well luminescence was measured on a Envision microplate reader. The IC50 determinations were made from a plot of the fractional velocity as a function of inhibitor concentration fit to the 4 parameters IC50 equation.

Another test deals with CDK1/Cyclin B1 (Homo sapiens (Human), UniProt P06493). Put plainly: CDK1/Cyclin B1 ADP-Glo Kinase Assay. The procedure, abridged:
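Purchased CDK1/Cyclin B1 was pre-incubated 30 min with inhibitor at room temperature, then reacted 90 min at room temperature after adding ATP-containing substrate. ADP formed was read by two-step ADP-Glo luminescence. IC50 came from a 4-parameter fit of fractional velocity versus inhibitor concentration.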

A further test addresses CDK4/Cyclin D1 (Homo sapiens (Human), UniProt P11802). Put plainly: CDK4/Cyclin D1 CHEF Assay. As to conditions: AQT; read-out: CDK4/CyclinD1 AQT IC50. The procedure, abridged: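 Peptide substrate AQT0258 carries a Sox fluorophore whose Mg(II)-dependent fluorescence (ex 360/em 485 nm) rises on phosphorylation. Enzyme and inhibitor pre-incubated 30 min at 22 °C, substrate added, reaction run 3 h at 22 °C. IC50 from 4-parameter fit of fractional velocity vs inhibitor concentration.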

For a further test, the target named is CDK6/Cyclin D3 (Homo sapiens (Human), UniProt Q00534). Put plainly: CDK6/Cyclin D3 ADP-Glo Kinase Assay. The settings on record: read-out: CDK6/CyclinD3 IC50. In short, it runs like this:
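Commercial CDK6/Cyclin D3 pre-incubated with inhibitor 30 min at room temperature, then reaction started with ATP/substrate and run 90 min at room temperature. ADP formed measured by ADP-Glo luminescence; IC50 from fractional velocity vs inhibitor concentration fit to a 4-parameter equation.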

CDK6/Cyclin D3, sequence (Q00534 whole entry): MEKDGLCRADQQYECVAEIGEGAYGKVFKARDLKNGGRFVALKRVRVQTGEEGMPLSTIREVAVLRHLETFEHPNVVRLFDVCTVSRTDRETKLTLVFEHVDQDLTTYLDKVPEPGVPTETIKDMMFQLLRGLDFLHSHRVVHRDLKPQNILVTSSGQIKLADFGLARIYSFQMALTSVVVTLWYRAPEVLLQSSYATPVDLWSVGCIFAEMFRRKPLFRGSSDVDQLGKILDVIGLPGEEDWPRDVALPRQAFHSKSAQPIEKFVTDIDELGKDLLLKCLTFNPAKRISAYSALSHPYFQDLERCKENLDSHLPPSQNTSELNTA
CDK6/Cyclin D3, sequence (P30281 whole entry partner): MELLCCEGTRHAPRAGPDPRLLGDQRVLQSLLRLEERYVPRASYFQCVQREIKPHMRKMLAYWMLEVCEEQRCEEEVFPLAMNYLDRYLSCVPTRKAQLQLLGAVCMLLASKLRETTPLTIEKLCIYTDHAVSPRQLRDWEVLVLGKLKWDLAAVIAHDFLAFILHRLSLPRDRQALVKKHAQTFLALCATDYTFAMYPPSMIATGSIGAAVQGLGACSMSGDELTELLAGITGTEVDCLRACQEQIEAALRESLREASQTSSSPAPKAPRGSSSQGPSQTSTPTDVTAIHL
CDK1/Cyclin B1, sequence (P06493 whole entry): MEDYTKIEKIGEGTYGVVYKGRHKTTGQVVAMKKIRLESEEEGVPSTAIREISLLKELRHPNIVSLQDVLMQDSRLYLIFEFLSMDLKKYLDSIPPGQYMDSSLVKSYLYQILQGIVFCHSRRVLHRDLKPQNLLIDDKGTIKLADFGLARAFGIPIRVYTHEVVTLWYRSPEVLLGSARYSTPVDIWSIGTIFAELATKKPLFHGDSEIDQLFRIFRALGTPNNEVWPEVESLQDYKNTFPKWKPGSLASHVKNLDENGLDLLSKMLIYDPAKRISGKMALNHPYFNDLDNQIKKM
CDK1/Cyclin B1, sequence (P14635 whole entry partner): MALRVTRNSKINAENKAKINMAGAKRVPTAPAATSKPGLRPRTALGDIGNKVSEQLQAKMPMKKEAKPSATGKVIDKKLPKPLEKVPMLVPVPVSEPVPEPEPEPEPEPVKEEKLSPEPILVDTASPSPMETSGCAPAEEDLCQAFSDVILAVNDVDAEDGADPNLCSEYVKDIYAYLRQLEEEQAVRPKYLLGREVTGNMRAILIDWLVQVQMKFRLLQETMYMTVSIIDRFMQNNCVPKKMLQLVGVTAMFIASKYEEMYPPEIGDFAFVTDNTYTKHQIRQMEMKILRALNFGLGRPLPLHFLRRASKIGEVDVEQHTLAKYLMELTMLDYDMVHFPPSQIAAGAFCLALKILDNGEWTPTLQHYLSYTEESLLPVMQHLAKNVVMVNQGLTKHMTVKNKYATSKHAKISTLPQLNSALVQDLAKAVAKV
CDK4/Cyclin D1, sequence (P11802 whole entry, species assumed): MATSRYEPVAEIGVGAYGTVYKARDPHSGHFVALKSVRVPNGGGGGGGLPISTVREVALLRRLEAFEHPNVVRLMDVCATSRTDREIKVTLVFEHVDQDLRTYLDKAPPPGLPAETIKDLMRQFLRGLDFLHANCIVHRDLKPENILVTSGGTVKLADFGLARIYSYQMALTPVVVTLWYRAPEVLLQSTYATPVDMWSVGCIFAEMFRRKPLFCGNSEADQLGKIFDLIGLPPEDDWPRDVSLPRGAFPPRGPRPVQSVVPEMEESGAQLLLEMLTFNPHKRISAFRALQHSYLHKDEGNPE
CDK4/Cyclin D1, sequence (P24385 whole entry partner, species assumed): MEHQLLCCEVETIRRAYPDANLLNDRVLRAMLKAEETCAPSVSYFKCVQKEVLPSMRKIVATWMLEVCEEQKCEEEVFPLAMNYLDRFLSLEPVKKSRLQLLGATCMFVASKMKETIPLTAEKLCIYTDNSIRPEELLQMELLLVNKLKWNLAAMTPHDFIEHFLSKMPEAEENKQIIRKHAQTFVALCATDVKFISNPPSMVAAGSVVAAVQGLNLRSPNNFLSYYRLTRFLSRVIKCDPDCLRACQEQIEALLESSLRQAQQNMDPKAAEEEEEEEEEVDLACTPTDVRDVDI

As to `Cc1cc2cnc(Nc3cnn(C4CC5(C4)CN(C)C5)c3)nc2c(N2CC3(C2)CN(S(C)(=O)=O)C3)n1` [Compound 26, 6-methyl-N-(1-(2-methyl-2-azaspiro[3.3]heptan-6-yl)-1H-pyrazol-4-yl)-8-(6-(methylsulfonyl)-2,6-diazaspiro[3.3]heptan-2-yl) pyrido[3,4-d]pyrimidin-2-amine], the values for the IC50 (in test [1]; on CDK1/Cyclin B1; on CDK4/Cyclin D1) were 200 to 500 nM, over 2000 nM and 200 to 500 nM, respectively.

`Cc1cc2cnc(Nc3ccc4c(c3)CN(C3CN(S(C)(=O)=O)C3)C4)nc2c(N2CC3(CN(C)C3)C2)n1` [Compound 29, 6-methyl-8-(6-methyl-2,6-diazaspiro[3.3]heptan-2-yl)-N-(2-(1-(methylsulfonyl)azetidin-3-yl)isoindolin-5-yl)pyrido[3,4-d]pyrimidin-2-amine]: the IC50 is 200 to 500 nM in test [1], over 2000 nM at CDK1/Cyclin B1 and under 200 nM on CDK4/Cyclin D1.

As for `Cc1cc2cnc(Nc3ccc(N4CC5(CN(C)C5)C4)cc3)nc2c(N2CC3(C2)CS(=O)(=O)C3)n1` [Compound 30, 6-(6-methyl-2-((4-(6-methyl-2,6-diazaspiro[3.3]heptan-2-yl)phenyl)amino)pyrido[3,4-d]pyrimidin-8-yl)-2-thia-6-azaspiro[3.3]heptane 2,2-dioxide], the IC50 was 200 to 500 nM at CDK6/Cyclin D3, 200 to 500 nM in test [1], over 2000 nM at CDK1/Cyclin B1 and 200 to 500 nM at CDK4/Cyclin D1.

Regarding `Cc1cc2cnc(Nc3cnn(C4CC5(C4)CN(C)C5)c3)nc2c(N2CCC3(C2)CC3(F)F)n1` (stereo not drawn) [Compound 33, 8-(1,1-difluoro-5-azaspiro[2.4]heptan-5-yl)-6-methyl-N-(1-(2-methyl-2-azaspiro[3.3]heptan-6-yl)-1H-pyrazol-4-yl)pyrido[3,4-d]pyrimidin-2-amine], the values for the IC50 (on CDK6/Cyclin D3; in test [1]; on CDK4/Cyclin D1) were under 200 nM, 200 to 500 nM and under 200 nM, respectively.

In the case of `Cc1cc2cnc(Nc3ccc(N4CC5(CN(C)C5)C4)cc3)nc2c(N2CCC3(CCOCC3)C2)n1` [Compound 35, 6-methyl-N-(4-(6-methyl-2,6-diazaspiro[3.3]heptan-2-yl)phenyl)-8-(8-oxa-2-azaspiro[4.5]decan-2-yl)pyrido[3,4-d]pyrimidin-2-amine], the IC50 is under 200 nM on CDK6/Cyclin D3, 200 to 500 nM in test [1], over 2000 nM against CDK1/Cyclin B1 and under 200 nM at CDK4/Cyclin D1.

For the compound `Cc1cc2cnc(Nc3cc4c(cc3F)CN(S(C)(=O)=O)C4)nc2c(N2CC3(CNC3)C2)n1` [Compound 37, N-(6-fluoro-2-(methylsulfonyl)isoindolin-5-yl)-6-methyl-8-(2,6-diazaspiro[3.3]heptan-2-yl) pyrido[3,4-d]pyrimidin-2-amine], the IC50 on CDK6/Cyclin D3 was over 2000 nM; in test [1], 200 to 500 nM; at CDK1/Cyclin B1 it was over 2000 nM; on CDK4/Cyclin D1 it was over 2000 nM.

For `Cc1cc2cnc(NC3CCN(S(C)(=O)=O)CC3)nc2c(N2CC3(C2)CN(C2CC2)C3)n1` [Compound 42, 8-(6-cyclopropyl-2,6-diazaspiro[3.3]heptan-2-yl)-6-methyl-N-(1-(methylsulfonyl)piperidin-4-yl)pyrido[3,4-d]pyrimidin-2-amine], the IC50 on CDK6/Cyclin D3 was 500 to 2000 nM; in test [1] it was under 200 nM; against CDK1/Cyclin B1, over 2000 nM; on CDK4/Cyclin D1 it was under 200 nM.

Take `O=S(=O)(C1CC1)N1CCC(Nc2ncc3cc(C(F)F)nc(N4CC5(CCNC5)C4)c3n2)CC1` [Compound 46, 1-(cyclopropanesulfonyl)-N-(8-{2,6-diazaspiro[3.4]octan-2-yl}-6-(difluoromethyl)pyrido[3,4-d]pyrimidin-2-yl)piperidin-4-amine]: the IC50 (at CDK6/Cyclin D3; in test [1]; at CDK1/Cyclin B1; on CDK4/Cyclin D1) was under 200 nM throughout.

On to `Cc1cc2cnc(NC3CCN(S(=O)(=O)C4(C)CC4)CC3)nc2c(C2CC(C)(O)C2)n1` (stereo not drawn) [Compound 63, 1-methyl-3-(6-methyl-2-((1-((1-methylcyclopropyl)sulfonyl)piperidin-4-yl)amino)pyrido[3,4-d]pyrimidin-8-yl)cyclobutan-1-ol], for which the IC50 is over 2000 nM at CDK6/Cyclin D3, 200 to 500 nM in test [1] and over 2000 nM on CDK1/Cyclin B1.

For the compound `Cc1cc2cnc(Nc3ccc(CS(C)(=O)=O)cc3)nc2c(N2CC(O)(C3CC3)C2)n1` [Compound 83, 3-cyclopropyl-1-(6-methyl-2-((4-((methylsulfonyl)methyl)phenyl)amino)pyrido[3,4-d]pyrimidin-8-yl)azetidin-3-ol], the IC50 at CDK6/Cyclin D3 was under 200 nM; against CDK1/Cyclin B1, 200 to 500 nM; on CDK4/Cyclin D1, under 200 nM.

In the case of `Cc1cc2cnc(NC3CCN(S(=O)(=O)c4cnn(C)c4)CC3)nc2c(N2CC3(CCNCC3(F)F)C2)n1` [Compound 87, 8-(5,5-difluoro-2,7-diazaspiro[3.5]nonan-2-yl)-6-methyl-N-(1-((1-methyl-1H-pyrazol-4-yl)sulfonyl)piperidin-4-yl)pyrido[3,4-d]pyrimidin-2-amine], the IC50 on CDK6/Cyclin D3, against CDK1/Cyclin B1 and on CDK4/Cyclin D1 was under 200 nM each time.

Consider `Cc1cc2cnc(NC3CCN(S(C)(=O)=O)CC3)nc2c(C2CC(O)(C3CC3)C2)n1` (stereo not drawn) [Compound 88, 1-cyclopropyl-3-(6-methyl-2-((1-(methylsulfonyl)piperidin-4-yl)amino)pyrido[3,4-d]pyrimidin-8-yl)cyclobutan-1-ol], for which the IC50 is under 200 nM on CDK6/Cyclin D3, 200 to 500 nM on CDK1/Cyclin B1 and under 200 nM at CDK4/Cyclin D1.

On to `Cc1cc2cnc(NC3CCN(S(=O)(=O)c4cnn(C)c4)CC3)nc2c(N2CC(F)(F)C3(CNC3)C2)n1` [Compound 89, 8-(8,8-difluoro-2,6-diazaspiro[3.4]octan-6-yl)-6-methyl-N-(1-((1-methyl-1H-pyrazol-4-yl)sulfonyl)piperidin-4-yl)pyrido[3,4-d]pyrimidin-2-amine], for which the IC50 on CDK6/Cyclin D3, at CDK1/Cyclin B1 and on CDK4/Cyclin D1 was under 200 nM in each case.

In the case of `Cc1cc2cnc(NC3CCN(S(C)(=O)=O)CC3)nc2c(N2CC(O)(C(F)F)C2)n1` [Compound 91, 3-(difluoromethyl)-1-(6-methyl-2-((1-(methylsulfonyl)piperidin-4-yl)amino)pyrido[3,4-d]pyrimidin-8-yl)azetidin-3-ol], the IC50 on CDK6/Cyclin D3, on CDK1/Cyclin B1 and at CDK4/Cyclin D1 was under 200 nM throughout.

With `Cc1cc2cnc(NC3CCN(S(C)(=O)=O)CC3)nc2c(N2CC(F)(F)C3(CNC3)C2)n1` [Compound 92, 8-(8,8-difluoro-2,6-diazaspiro[3.4]octan-6-yl)-6-methyl-N-(1-(methylsulfonyl)piperidin-4-yl)pyrido[3,4-d]pyrimidin-2-amine], the IC50 on CDK6/Cyclin D3, against CDK1/Cyclin B1 and on CDK4/Cyclin D1 was under 200 nM each time.

`CCS(=O)(=O)N1CCC(Nc2ncc3cc(C)nc(N4CC(F)(F)C5(CNC5)C4)c3n2)CC1` [Compound 95, 8-(8,8-difluoro-2,6-diazaspiro[3.4]octan-6-yl)-N-(1-(ethylsulfonyl)piperidin-4-yl)-6-methylpyrido[3,4-d]pyrimidin-2-amine]: the IC50 on CDK6/Cyclin D3, on CDK1/Cyclin B1 and at CDK4/Cyclin D1 was under 200 nM throughout.

As for `Cc1cc2cnc(NC3CCN(S(C)(=O)=O)CC3)nc2c(N2CC3(CNCC3F)C2)n1` (stereo not drawn) [Compound 98, 8-(8-fluoro-2,6-diazaspiro[3.4]octan-2-yl)-6-methyl-N-(1-(methylsulfonyl)piperidin-4-yl)pyrido[3,4-d]pyrimidin-2-amine], the IC50 on CDK6/Cyclin D3 was 200 to 500 nM; against CDK1/Cyclin B1, 200 to 500 nM; on CDK4/Cyclin D1, under 200 nM.

`Cc1cc2cnc(NC3CCN(S(=O)(=O)C4CC4)CC3)nc2c(N2CC(F)(F)C3(CN(C)C3)C2)n1` [Compound 102, N-(1-(cyclopropylsulfonyl)piperidin-4-yl)-8-(8,8-difluoro-2-methyl-2,6-diazaspiro[3.4]octan-6-yl)-6-methylpyrido[3,4-d]pyrimidin-2-amine]: the IC50 on CDK6/Cyclin D3, against CDK1/Cyclin B1 and on CDK4/Cyclin D1 was under 200 nM each time.

With `Cc1cc2cnc(NC3CCN(S(C)(=O)=O)CC3)nc2c(N2CC3(CN(C)C[C@@H]3F)C2)n1` [Compound 103, (R)-8-(8-fluoro-6-methyl-2,6-diazaspiro[3.4]octan-2-yl)-6-methyl-N-(1-(methylsulfonyl)piperidin-4-yl)pyrido[3,4-d]pyrimidin-2-amine], the IC50 at CDK6/Cyclin D3 is under 200 nM; in test [1], under 200 nM; against CDK1/Cyclin B1, 500 to 2000 nM; on CDK4/Cyclin D1, under 200 nM.
